# Source: paper PMC10119282, “Molecular characterization of AIFM2/FSP1 inhibition by iFSP1-like molecules” (Cell Death & Disease, 2023)
# Tests used:
# [1] = tested on: Pfa1 Gpx4−/− overexpressing hFSP1 WT, hFSP1 F360L and mFSP1 WT; test: Cell viability response to N-myristoyltransferase inhibitor IMP-1088; assay type: cell-based, murine
# Protocol: (§1) Cell Lines. 4-hydroxytamoxifen (TAM)-inducible Gpx4^−/− murine immortalized fibroblasts (Pfa1) were reported previously. These cells harbor two loxP-flanked Gpx4 alleles and stably express TAM inducible Cre recombinase allowing the genetic deletion of Gpx4 at will. For all experiments using Gpx4^−/− the well were treated with 4-hydroxitamoxifen (TAM) 1 µM. All cells were cultured with were cultured in DMEM-high glucose (4.5 g glucose/L) with 10% fetal bovine serum (FBS), Glutamax, and 1% penicillin/streptomycin (Gibco, Thermo Fischer) at 37 °C with 5% CO2 and verified to be negative for mycoplasma.
# (§2) Cell viability assays. Alamar Blue method: Cells were seeded on 96-well plates (2000 cells per well) and treated with the compounds RSL3, iFSP1 and (liproxstatin-1) after plating. Cell viability was assessed 48 h (unless stated otherwise) after treatment using Alamar Blue as an indicator of viable cells. Alamar blue solution was made by dissolving of 1 g resazurin sodium salt (Thermo Fischer) in 200 mL sterile PBS and sterile filtrated through a 0.22 µm filter. Stock solutions were stored at 4 °C. The working solution was made freshly by adding 200 µL of the stock solution to 25 mL growth media. After 2–4 h incubation time, viability was estimated by measuring the fluorescence using a 540/35 excitation filter and a 590/20 emission on a Spark® microplate reader (Tecan, Zürich, Switzerland).
# hFSP1 WT = biological target: T1, hFSP1 WT (Homo sapiens, UniProt Q9BRQ8); test: Competition MST against pre-formed complex of hFSP1 WT and FSP1-Tracer; assay type: binding; conditions: hFSP1 WT 5 µM and FSP1-Tracer 5 nM pre-formed complex
# T1 construct: HisSUMO (cleaved yes); made in house; host or cells: E. coli BL21
# T1 sequence (Q9BRQ8 1-373): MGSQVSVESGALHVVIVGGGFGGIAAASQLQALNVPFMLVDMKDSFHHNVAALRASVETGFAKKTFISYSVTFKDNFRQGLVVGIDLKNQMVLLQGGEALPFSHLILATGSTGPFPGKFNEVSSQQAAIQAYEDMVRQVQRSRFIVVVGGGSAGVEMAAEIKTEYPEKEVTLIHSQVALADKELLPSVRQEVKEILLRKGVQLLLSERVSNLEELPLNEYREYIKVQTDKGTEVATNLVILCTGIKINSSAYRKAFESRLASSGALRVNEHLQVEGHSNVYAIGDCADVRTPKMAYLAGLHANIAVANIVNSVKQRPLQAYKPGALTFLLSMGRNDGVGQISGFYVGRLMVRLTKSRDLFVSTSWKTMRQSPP
# Protocol: FSP1 (human isoform 1, UniProt Q9BRQ8-1) WT (hFSP1 WT) and F360L (hFSP1 F360L) were expressed in E.coli BL21 as HisSUMO fusion protein. Cells were grown in lysogeny broth medium at 18 °C and induced with 0.5 mM isopropyl-β-thiogalactoside at a cell density A600 of 0.6. Cells were collected after overnight expression by centrifugation, resuspended in lysis buffer ([…], 50 mM Tris-HCl pH 8, 1 mM TCEP, 20 mM imidazole, protease inhibitor, DNase) and lysed by sonication. Cell debris was removed by centrifugation (30,000 × g) at 4 °C for 30 min, after which an IMAC purification was performed. Briefly, a HisTrap crude FF (5 mL) column was equilibrated to lysis buffer, lysates were loaded via the sample pump and the column was then washed with 50 mL lysis buffer. During the elution with a gradient to 100% IMAC elution buffer (300 mM NaCl, 50 mM Tris-HCl pH 8, 1 mM TCEP, 400 mM imidazole) over 100 mL, 5 mL fractions were collected. The pooled fractions were dialysed overnight in the presence of SenP2 SUMO protease at a ratio of 40:1 FSP1:SenP2. Afterwards, a reverse IMAC purification was performed on a HisTrap crude FF (5 mL) column. IMAC eluates were analysed by SDS PAGE and concentrated to 15 mL (hFSP1 WT) and 5 mL (hFSP1 F360L), respectively. […] Pure fractions were pooled (C12—D11 for hFSP1 WT and C7—D4 for hFSP1 F360L), analysed by SDS-PAGE (Supplementary Fig. 4) and concentrated to 5.8 mL at 285.9 µM (hFSP1 WT) and 1.2 mL at 269.5 µM (FSP1 F360L), flash frozen in liquid N2 and stored at −80 °C.
# An MST buffer consisting of 1× phosphate-buffered saline (PBS; 137 mM NaCl, 2.7 mM KCl, 10 mM Na2HPO4, 1.8 mM KH2PO4, pH 7.4) with 2 mM reduced L-Glutathione (GSH, Sigma Aldrich, product number G4251) and 0.05% (v/v) Tween 20 (ITW Reagents, molecular biology grade, product number A4974) was used for all MST measurements. […] KD values were determined by applying a Hill-fit to a plot of Fnorm vs. hFSP1 WT/F360L concentration. […]
# [2] = tested on: Pfa1 Gpx4−/− cell line overexpressing hFSP1, mFSP1 and hFSP1 F360L mutants; test: BODIPY 581/591 C11 oxidation (flow cytometry); assay type: cell-based, murine; conditions: iFSP1 3 µM for 3 h with Lip-1; all conditions
# Protocol: In total, 150,000 cells per well were seeded on 6-well dishes one day prior to the experiment. […] Cells were incubated with C11-BODIPY (581/591) (1 μM) for 30 min at 37 °C before they were harvested by trypsinisation. Subsequently, cells were resuspended in 500 μL of fresh PBS (DPBS, Gibco) and analyzed using a 488-nm laser excitation laser and fluorescence recorded on a (FACS Canto II, BD Biosciences). Data was collected from the FL1 detector (C11-BODIPY, Invitrogen) with a 502LP and 530/30 BP filter. At least 20,000 events were analyzed per sample. Data was analyzed using FlowJo Software version 10.8.1.
# [3] = tested on: Pfa1 Gpx4−/− cells overexpressing human FSP1 (hFSP1); test: Cell viability (Alamar blue), dose-response toxicity in Gpx4-knockout cells expressing hFSP1; assay type: cell-based, murine; conditions: cells treated with iFSP1
# Protocol: as §1, §2
# Codon-optimized Mus musculus (mouse) FSP1 (NP_001034283.1) and Homo sapiens (Human) FSP1 (NP_001185625.1) were synthesized by IDT as gBlocks^TM and subcloned into p442-IRES-blast vectors. The chimera constructs were generated based on the pairwise alignment between the gene of Homo sapiens (Human) and the Mus musculus (Mouse), all the chimeric constructs contain the murine isoform with one region exchanged to the human isoform. […]
# [4] = tested on: Pfa1 cells overexpressing the mock, hFSP1 WT, hFSP1 F360L and mFSP1 WT; test: Cell viability response to GPX4 inhibitor RSL3; assay type: cell-based, murine; conditions: Alamar blue viability
# Protocol: as §1, §2
smiles,measurement,setting,value
Cc1nn(C)c(C)c1CCOc1c(-c2ccc3c(c2)c(CN(C)C)nn3C)ccc(F)c1F [IMP-1088],ferroptosis induction across FSP1 variants,[1],all mutants undergo ferroptosis similarly
NC(=O)C1=CN(C2OC(COP(=O)(O)OP(=O)(O)OCC3OC(n4cnc5c(N)ncnc54)C(O)C3O)C(O)C2O)C=CC1 (centres unmarked) [NADH],Ki,hFSP1 WT,455 nM
"Clc1cccc(CN=C2Nc3ccccc3NC23CCNCC3)c1 [Lip-1, liproxstatin-1]",rescue of the iFSP1-induced increase in BODIPY-C11 signal,[2],could be rescued
same,rescue from iFSP1-induced ferroptosis,[3],rescuing the cells
"COC(=O)c1ccc([C@@H]2c3[nH]c4ccccc4c3C[C@@H](C(=O)OC)N2C(=O)CCl)cc1 [RSL3, (1 S,3 R)-RSL3]",difference in response to the GPX4 inhibitor between cells overexpressing the FSP1 variants,[4],no difference in response
